What was measured:
Format in all cases: functional
[1] = tested on: Lolium rigidum; test: Herbicidal activity against Lolium rigidum accession A09 assessed as fresh weight reduction applied at recommended rate incorporated into the soil prior weed seedlings relative to untreated control; design: scale not given: the % may be the effect or the level left
[2] = tested on: Lolium rigidum; test: Herbicidal activity against Lolium rigidum accession A15 assessed as emergence rate applied at recommended rate incorporated into the soil prior weed seedlings relative to untreated control
[3] = tested on: Lolium rigidum; test: Herbicidal activity against Lolium rigidum accession A14 assessed as fresh weight reduction applied at recommended rate incorporated into the soil prior weed seedlings relative to untreated control; design: scale not given: the % may be the effect or the level left
[4] = tested on: Lolium rigidum; test: Herbicidal activity against Lolium rigidum accession A06 assessed as emergence rate applied at recommended rate incorporated into the soil prior weed seedlings relative to untreated control
[5] = tested on: Lolium rigidum; test: Herbicidal activity against Lolium rigidum accession A02 assessed as fresh weight reduction applied at recommended rate incorporated into the soil prior weed seedlings relative to untreated control; design: scale not given: the % may be the effect or the level left
[6] = tested on: Lolium rigidum; test: Herbicidal activity against Lolium rigidum accession A11 assessed as emergence rate applied at recommended rate incorporated into the soil prior weed seedlings relative to untreated control
[7] = tested on: Lolium rigidum; test: Herbicidal activity against Lolium rigidum accession A15 assessed as fresh weight reduction applied at recommended rate incorporated into the soil prior weed seedlings relative to untreated control; design: scale not given: the % may be the effect or the level left
[8] = tested on: Lolium rigidum; test: Herbicidal activity against Lolium rigidum accession A07 assessed as fresh weight reduction applied at recommended rate incorporated into the soil prior weed seedlings relative to untreated control; design: scale not given: the % may be the effect or the level left
[9] = tested on: Lolium rigidum; test: Herbicidal activity against Lolium rigidum accession A07 assessed as emergence rate applied at recommended rate incorporated into the soil prior weed seedlings relative to untreated control
[10] = tested on: Lolium rigidum; test: Herbicidal activity against Lolium rigidum accession A14 assessed as emergence rate applied at recommended rate incorporated into the soil prior weed seedlings relative to untreated control
[11] = tested on: Lolium rigidum; test: Herbicidal activity against Lolium rigidum accession A13 assessed as fresh weight reduction applied at recommended rate incorporated into the soil prior weed seedlings relative to untreated control; design: scale not given: the % may be the effect or the level left
[12] = tested on: Lolium rigidum; test: Herbicidal activity against Lolium rigidum accession A11 assessed as fresh weight reduction applied at recommended rate incorporated into the soil prior weed seedlings relative to untreated control; design: scale not given: the % may be the effect or the level left
[13] = tested on: Lolium rigidum; test: Herbicidal activity against Lolium rigidum accession A04 assessed as emergence rate applied at recommended rate incorporated into the soil prior weed seedlings relative to untreated control
[14] = tested on: Lolium rigidum; test: Herbicidal activity against Lolium rigidum accession A10 assessed as emergence rate applied at recommended rate incorporated into the soil prior weed seedlings relative to untreated control
[15] = tested on: Lolium rigidum; test: Herbicidal activity against Lolium rigidum accession A06 assessed as fresh weight reduction applied at recommended rate incorporated into the soil prior weed seedlings relative to untreated control; design: scale not given: the % may be the effect or the level left
[16] = tested on: Lolium rigidum; test: Herbicidal activity against Lolium rigidum accession A01 assessed as fresh weight reduction applied at recommended rate incorporated into the soil prior weed seedlings relative to untreated control; design: scale not given: the % may be the effect or the level left
[17] = tested on: Lolium rigidum; test: Herbicidal activity against Lolium rigidum accession A04 assessed as fresh weight reduction applied at recommended rate incorporated into the soil prior weed seedlings relative to untreated control; design: scale not given: the % may be the effect or the level left
[18] = tested on: Lolium rigidum; test: Herbicidal activity against Lolium rigidum accession A13 assessed as emergence rate applied at recommended rate incorporated into the soil prior weed seedlings relative to untreated control
[19] = tested on: Lolium rigidum; test: Herbicidal activity against Lolium rigidum accession A03 assessed as fresh weight reduction applied at recommended rate incorporated into the soil prior weed seedlings relative to untreated control; design: scale not given: the % may be the effect or the level left
[20] = tested on: Lolium rigidum; test: Herbicidal activity against Lolium rigidum accession A08 assessed as emergence rate applied at recommended rate incorporated into the soil prior weed seedlings relative to untreated control
[21] = tested on: Lolium rigidum; test: Herbicidal activity against Lolium rigidum accession A12 assessed as fresh weight reduction applied at recommended rate incorporated into the soil prior weed seedlings relative to untreated control; design: scale not given: the % may be the effect or the level left
[22] = tested on: Lolium rigidum; test: Herbicidal activity against Lolium rigidum accession A02 assessed as emergence rate applied at recommended rate incorporated into the soil prior weed seedlings relative to untreated control
[23] = tested on: Lolium rigidum; test: Herbicidal activity against Lolium rigidum accession A01 assessed as emergence rate applied at recommended rate incorporated into the soil prior weed seedlings relative to untreated control
[24] = tested on: Lolium rigidum; test: Herbicidal activity against Lolium rigidum accession A03 assessed as emergence rate applied at recommended rate incorporated into the soil prior weed seedlings relative to untreated control
[25] = tested on: Lolium rigidum; test: Herbicidal activity against Lolium rigidum accession A05 assessed as fresh weight reduction applied at recommended rate incorporated into the soil prior weed seedlings relative to untreated control; design: scale not given: the % may be the effect or the level left
[26] = tested on: Lolium rigidum; test: Herbicidal activity against Lolium rigidum accession A12 assessed as emergence rate applied at recommended rate incorporated into the soil prior weed seedlings relative to untreated control
[27] = tested on: Lolium rigidum; test: Herbicidal activity against Lolium rigidum accession A08 assessed as fresh weight reduction applied at recommended rate incorporated into the soil prior weed seedlings relative to untreated control; design: scale not given: the % may be the effect or the level left
[28] = tested on: Lolium rigidum; test: Herbicidal activity against Lolium rigidum accession A10 assessed as fresh weight reduction applied at recommended rate incorporated into the soil prior weed seedlings relative to untreated control; design: scale not given: the % may be the effect or the level left
[29] = tested on: Lolium rigidum; test: Herbicidal activity against Lolium rigidum accession A05 assessed as emergence rate applied at recommended rate incorporated into the soil prior weed seedlings relative to untreated control
[30] = tested on: Lolium rigidum; test: Herbicidal activity against Lolium rigidum accession A09 assessed as emergence rate applied at recommended rate incorporated into the soil prior weed seedlings relative to untreated control
[31] = tested on: Lolium rigidum; test: Herbicidal activity against Lolium rigidum accession A14 assessed as emergence rate applied at 1 times pre-emergence recommended rate relative to untreated control
[32] = tested on: Lolium rigidum; test: Herbicidal activity against Lolium rigidum accession A07 assessed as fresh weight reduction applied at 1 times pre-emergence recommended rate relative to untreated control; design: scale not given: the % may be the effect or the level left
[33] = tested on: Lolium rigidum; test: Herbicidal activity against Lolium rigidum accession A02 assessed as emergence rate applied at 1 times pre-emergence recommended rate relative to untreated control
[34] = tested on: Lolium rigidum; test: Herbicidal activity against Lolium rigidum accession A12 assessed as emergence rate applied at 1 times pre-emergence recommended rate relative to untreated control
[35] = tested on: Lolium rigidum; test: Herbicidal activity against Lolium rigidum accession A02 assessed as fresh weight reduction applied at 1 times pre-emergence recommended rate relative to untreated control; design: scale not given: the % may be the effect or the level left
[36] = tested on: Lolium rigidum; test: Herbicidal activity against Lolium rigidum accession A05 assessed as fresh weight reduction applied at 1 times pre-emergence recommended rate relative to untreated control; design: scale not given: the % may be the effect or the level left
[37] = tested on: Lolium rigidum; test: Herbicidal activity against Lolium rigidum accession A03 assessed as fresh weight reduction applied at 1 times pre-emergence recommended rate relative to untreated control; design: scale not given: the % may be the effect or the level left
[38] = tested on: Lolium rigidum; test: Herbicidal activity against Lolium rigidum accession A13 assessed as emergence rate applied at 1 times pre-emergence recommended rate relative to untreated control
[39] = tested on: Lolium rigidum; test: Herbicidal activity against Lolium rigidum accession A08 assessed as fresh weight reduction applied at 1 times pre-emergence recommended rate relative to untreated control; design: scale not given: the % may be the effect or the level left
[40] = tested on: Lolium rigidum; test: Herbicidal activity against Lolium rigidum accession A11 assessed as fresh weight reduction applied at 1 times pre-emergence recommended rate relative to untreated control; design: scale not given: the % may be the effect or the level left
[41] = tested on: Lolium rigidum; test: Herbicidal activity against Lolium rigidum accession A12 assessed as fresh weight reduction applied at 1 times pre-emergence recommended rate relative to untreated control; design: scale not given: the % may be the effect or the level left
[42] = tested on: Lolium rigidum; test: Herbicidal activity against Lolium rigidum accession A03 assessed as emergence rate applied at 1 times pre-emergence recommended rate relative to untreated control
[43] = tested on: Lolium rigidum; test: Herbicidal activity against Lolium rigidum accession A04 assessed as fresh weight reduction applied at 1 times pre-emergence recommended rate relative to untreated control; design: scale not given: the % may be the effect or the level left
[44] = tested on: Lolium rigidum; test: Herbicidal activity against Lolium rigidum accession A15 assessed as emergence rate applied at 1 times pre-emergence recommended rate relative to untreated control
[45] = tested on: Lolium rigidum; test: Herbicidal activity against Lolium rigidum accession A09 assessed as fresh weight reduction applied at 1 times pre-emergence recommended rate relative to untreated control; design: scale not given: the % may be the effect or the level left
[46] = tested on: Lolium rigidum; test: Herbicidal activity against Lolium rigidum accession A11 assessed as emergence rate applied at 1 times pre-emergence recommended rate relative to untreated control
[47] = tested on: Lolium rigidum; test: Herbicidal activity against Lolium rigidum accession A06 assessed as fresh weight reduction applied at 1 times pre-emergence recommended rate relative to untreated control; design: scale not given: the % may be the effect or the level left
[48] = tested on: Lolium rigidum; test: Herbicidal activity against Lolium rigidum accession A06 assessed as emergence rate applied at 1 times pre-emergence recommended rate relative to untreated control
[49] = tested on: Lolium rigidum; test: Herbicidal activity against Lolium rigidum accession A07 assessed as emergence rate applied at 1 times pre-emergence recommended rate relative to untreated control
[50] = tested on: Lolium rigidum; test: Herbicidal activity against Lolium rigidum accession A04 assessed as emergence rate applied at 1 times pre-emergence recommended rate relative to untreated control
[51] = tested on: Lolium rigidum; test: Herbicidal activity against Lolium rigidum accession A01 assessed as emergence rate applied at 1 times pre-emergence recommended rate relative to untreated control
[52] = tested on: Lolium rigidum; test: Herbicidal activity against Lolium rigidum accession A14 assessed as fresh weight reduction applied at 1 times pre-emergence recommended rate relative to untreated control; design: scale not given: the % may be the effect or the level left
[53] = tested on: Lolium rigidum; test: Herbicidal activity against Lolium rigidum accession A09 assessed as emergence rate applied at 1 times pre-emergence recommended rate relative to untreated control
[54] = tested on: Lolium rigidum; test: Herbicidal activity against Lolium rigidum accession A10 assessed as emergence rate applied at 1 times pre-emergence recommended rate relative to untreated control
[55] = tested on: Lolium rigidum; test: Herbicidal activity against Lolium rigidum accession A08 assessed as emergence rate applied at 1 times pre-emergence recommended rate relative to untreated control
[56] = tested on: Lolium rigidum; test: Herbicidal activity against Lolium rigidum accession A01 assessed as fresh weight reduction applied at 1 times pre-emergence recommended rate relative to untreated control; design: scale not given: the % may be the effect or the level left
[57] = tested on: Lolium rigidum; test: Herbicidal activity against Lolium rigidum accession A05 assessed as emergence rate applied at 1 times pre-emergence recommended rate relative to untreated control
[58] = tested on: Lolium rigidum; test: Herbicidal activity against Lolium rigidum accession A15 assessed as fresh weight reduction applied at 1 times pre-emergence recommended rate relative to untreated control; design: scale not given: the % may be the effect or the level left
[59] = tested on: Lolium rigidum; test: Herbicidal activity against Lolium rigidum accession A10 assessed as fresh weight reduction applied at 1 times pre-emergence recommended rate relative to untreated control; design: scale not given: the % may be the effect or the level left
[60] = tested on: Lolium rigidum; test: Herbicidal activity against Lolium rigidum accession A13 assessed as fresh weight reduction applied at 1 times pre-emergence recommended rate relative to untreated control; design: scale not given: the % may be the effect or the level left

Measured: Activity

CCOP(=S)(OCC)SCSC(C)(C)C [TERBUFOS]
99%: [2] | [23] | [30]
100%: [13] | [18] | [20]
97%: [4] | [22]
93%: [9] | [26]
98%: [6] | [24]
94%: [10]
2%: [21]
95%: [14] | [29]
1%: [3] | [25]
0%: [1] | [5] | [7] | [8] | [11] | [12] | [15] | [16] | [17] | [19] | [27] | [28]

CCCN(CCC)C(=O)SCc1ccccc1 [PROSULFOCARB]
100%: [32] | [35] | [36] | [37] | [39] | [41] | [45] | [47] | [52] | [56] | [58] | [59] | [60]
0%: [31] | [33] | [34] | [38] | [42] | [44] | [48] | [49] | [51] | [53] | [54] | [55] | [57]
98%: [43]
99%: [40]
1%: [46] | [50]

Source: ChEMBL document CHEMBL3046358, “Multiple Pro-197 substitutions in the acetolactate synthase of rigid ryegrass (Lolium rigidum) and their impact on chlorsulfuron activity and plant growth” (Crop Prot, 2012)
